Reference: Sander's compilation of Henry's law constants
“And” between values parts separate entries of the source, which are not always exact repeats. Identical values can stand only once. One block for each compound: values may come before it.

Columns and labels:
[1] = Henry solubility constant Hcp at 293 K (mol/(m3 Pa))
[2] = Henry solubility constant Hcp at 298.15 K (mol/(m3 Pa))
[3] = Henry solubility constant Hcp at 291 K (mol/(m3 Pa)); conditions: reference: Schöne (1873)
[4] = Henry solubility constant Hcp at 301 K (mol/(m3 Pa)); conditions: reference: Nelson and Hoff (1968)
[5] = Henry solubility constant Hcp at 313 K (mol/(m3 Pa)); conditions: reference: Vitenberg et al. (1974)
[6] = Henry solubility constant Hcp at 283 K (mol/(m3 Pa)); conditions: reference: Pearson and McConnell (1975)
[7] = Henry solubility constant Hcp at 303 K (mol/(m3 Pa)); conditions: reference: Richon et al. (1985)
[8] = Henry solubility constant Hcp at 297 K (mol/(m3 Pa)); conditions: reference: Nozière and Riemer (2003)
[9] = Henry solubility constant Hcp at 310 K (mol/(m3 Pa)); conditions: reference: Power and Stegall (1970)
[10] = Henry solubility constant Hcp at 273 K (mol/(m3 Pa)); conditions: reference: Razumovskii and Zaikov (1971)
[11] = Henry solubility constant Hcp at 290 K (mol/(m3 Pa)); conditions: reference: Thomas et al. (2006)
[12] = Henry solubility constant Hcp at 294 K (mol/(m3 Pa)); conditions: reference: Brownawell (1986)
[13] = reference: Straver and de Loos (2005)
[14] = reference: Vitenberg et al. (1974)

SMILES: O=[O+][O-] [ozone]
Henry solubility constant Hcp at 293 K ([1]; reference: Gurol and Singer (1982)): 0.00017
Henry solubility constant Hcp at 293 K ([1]; reference: Levanov et al. (2008)): 0.00011
Henry solubility constant Hcp ([2]; reference: Andreozzi et al. (1996)): 9.2e-05
Henry solubility constant Hcp ([2]; reference: Briner and Perrottet (1939)): 0.00013
Henry solubility constant Hcp ([2]; reference: Fischer and Tropsch (1917)): 0.0002
Henry solubility constant Hcp ([2]; reference: Gershenzon et al. (2001)): 0.00011
Henry solubility constant Hcp ([2]; reference: Kilpatrick et al. (1956)): 9.9e-05
Henry solubility constant Hcp ([2]; reference: Kosak-Channing and Helz (1983)): 0.00011
Henry solubility constant Hcp ([2]; reference: Luther (1905)): 8e-05
Henry solubility constant Hcp ([2]; reference: Mailfert (1894)): 0.00012
Henry solubility constant Hcp ([2]; reference: Rischbieter et al. (2000)): 9.9e-05
Henry solubility constant Hcp ([2]; reference: Sotelo et al. (1989)): 0.00012
Henry solubility constant Hcp ([2]; reference: Stumm (1958)): 0.00012
Henry solubility constant Hcp at 291 K [3]: 0.00012

SMILES: CCCC(C)=O [2-pentanone]
Henry solubility constant Hcp at 301 K [4]: 0.092
Henry solubility constant Hcp ([2]; reference: Chai et al. (2005)): 0.1
Henry solubility constant Hcp ([2]; reference: Hawthorne et al. (1985)): 0.09
Henry solubility constant Hcp ([2]; reference: Hovorka et al. (2019)): 0.13
Henry solubility constant Hcp ([2]; reference: Ji and Evans (2007)): 0.16
Henry solubility constant Hcp ([2]; reference: Kim et al. (2000)): 0.11
Henry solubility constant Hcp [2, 13]: 0.086
Henry solubility constant Hcp [2, 14]: 0.17
Henry solubility constant Hcp at 313 K [5]: 0.11

SMILES: C=CCl [chloroethene]
Henry solubility constant Hcp at 283 K [6]: 8.5e-06
Henry solubility constant Hcp ([2]; reference: Chen et al. (2012)): 0.00041
Henry solubility constant Hcp ([2]; reference: Gossett (1987)): 0.00037

SMILES: CC(C)=O [propanone]
Henry solubility constant Hcp at 303 K [7]: 0.19
Henry solubility constant Hcp at 293 K ([1]; reference: Yu (1992)): 0.17
Henry solubility constant Hcp at 297 K [8]: 0.27
Henry solubility constant Hcp at 301 K [4]: 0.31
Henry solubility constant Hcp ([2]; reference: Benkelberg et al. (1995)): 0.27
Henry solubility constant Hcp ([2]; reference: Betterton (1991)): 0.32
Henry solubility constant Hcp ([2]; reference: Burnett (1963)): 0.28
Henry solubility constant Hcp ([2]; reference: Chai et al. (2005)): 0.24
Henry solubility constant Hcp ([2]; reference: Ioffe et al. (1984)): 0.2
Henry solubility constant Hcp ([2]; reference: Ji and Evans (2007)): 0.26
Henry solubility constant Hcp ([2]; reference: Lichtenbelt and Schram (1985)): 0.26
Henry solubility constant Hcp ([2]; reference: Poulain et al. (2010)): 0.29
Henry solubility constant Hcp ([2]; reference: Schoene and Steinhanses (1985)): 0.32
Henry solubility constant Hcp ([2]; reference: Snider and Dawson (1985)): 0.25
Henry solubility constant Hcp [2, 13]: 0.24
Henry solubility constant Hcp ([2]; reference: Strekowski and George (2005)): 0.26
Henry solubility constant Hcp [2, 14]: 0.25 and 0.32
Henry solubility constant Hcp ([2]; reference: Vitenberg et al. (1975)): 0.25

Henry solubility constant Hcp at 301 K [4]: 0.02
Henry solubility constant Hcp ([2]; reference: Bruneel et al. (2016)): 0.011
Henry solubility constant Hcp ([2]; reference: Pollien et al. (2003)): 0.026
Henry solubility constant Hcp ([2]; reference: Wieland et al. (2015)): 0.024
SMILES: CC(C)CC=O [3-methylbutanal]

SMILES: O=O [oxygen]
Henry solubility constant Hcp at 293 K ([1]; reference: da Silva et al. (1980)): 1.2e-05
Henry solubility constant Hcp at 310 K [9]: 1.1e-05
Henry solubility constant Hcp ([2]; reference: Benson et al. (1979)): 1.3e-05
Henry solubility constant Hcp ([2]; reference: Bohr and Bock (1891)): 1.3e-05
Henry solubility constant Hcp ([2]; reference: Bunsen (1855a)): 1.2e-05
Henry solubility constant Hcp ([2]; reference: Carpenter (1966)): 1.2e-05
Henry solubility constant Hcp ([2]; reference: Cosgrove and Walkley (1981)): 1.3e-05
Henry solubility constant Hcp ([2]; reference: Cramer (1980)): 1.3e-05
Henry solubility constant Hcp ([2]; reference: Fox (1909)): 1.3e-05
Henry solubility constant Hcp ([2]; reference: Geffcken (1904)): 1.2e-05
Henry solubility constant Hcp ([2]; reference: Millero et al. (2002a)): 1.2e-05
Henry solubility constant Hcp ([2]; reference: Millero et al. (2002b)): 1.2e-05
Henry solubility constant Hcp ([2]; reference: Morrison and Billett (1952)): 1.3e-05
Henry solubility constant Hcp ([2]; reference: Murray and Riley (1969)): 1.3e-05
Henry solubility constant Hcp ([2]; reference: Orcutt and Seevers (1937a)): 1.2e-05
Henry solubility constant Hcp ([2]; reference: Rettich et al. (1981)): 1.3e-05
Henry solubility constant Hcp ([2]; reference: Rettich et al. (2000)): 1.3e-05
Henry solubility constant Hcp ([2]; reference: Sherwood et al. (1991)): 1.3e-05
Henry solubility constant Hcp ([2]; reference: Shoor et al. (1969)): 1.2e-05
Henry solubility constant Hcp ([2]; reference: Timofejew (1890)): 1.2e-05
Henry solubility constant Hcp ([2]; reference: Winkler (1891b)): 1.3e-05
Henry solubility constant Hcp at 273 K [10]: 0.00014

SMILES: Cl/C=C\CCl [cis-1,3-dichloropropene]
Henry solubility constant Hcp at 290 K [11]: 0.01
Henry solubility constant Hcp ([2]; reference: Leistra (1970)): 0.005

SMILES: Clc1cc(Cl)c(-c2ccc(Cl)c(Cl)c2Cl)cc1Cl [2,2',3,4,4',5'-hexachlorobiphenyl]
Henry solubility constant Hcp ([2]; reference: Murphy et al. (1983a)): 0.021
Henry solubility constant Hcp at 294 K [12]: 0.14
